Measurements as given in patent US8680012B2, “4-phenyl-pyrane-3,5-diones,4-phenyl-thiopyrane-3,6-diones and cyclohexanetriones as novel herbicides” (Syngenta Crop Protection LLC, priority 2006, dated 2014).

Tested on: Alopecurus myosuroides (ALOMY)
Assay: Example A pre-emergence herbicidal activity, glasshouse pot test
Assay type: in vivo
Conditions: 480 h, rate 500 g/ha, evaluated 20 days after spraying, read-out: Pre-emergence activity ALOMY (100=total damage to plant; 0=no damage to plant)
Experimental: (§1) Seeds of a variety of test species were sown in standard soil in pots. After cultivation for one day (pre-emergence) or after 10 days cultivation (post-emergence) under controlled conditions in a glasshouse, the plants were sprayed with an aqueous spray solution derived from the formulation of the technical active ingredient in 0.6 ml acetone and 45 ml formulation solution containing 10.6% Emulsogen EL (Registry number 61791-12-6), 42.2% N-methylpyrrolidone, 42.2% dipropylene glycol monomethyl ether (Registry number 34590-94-8) and 0.2% X-77 (Registry number 11097-66-8). The test plants were then grown in a greenhouse under optimum conditions until, 15 days later for post-emergence and 20 days for pre-emergence, the test was evaluated (100=total damage to plant; 0=no damage to plant).
(§2) Alopecurus myosuroides (ALOMY), Avena fatua (AVEFA), Lolium perenne (LOLPE), Setaria faberi (SETFA), Digitaria sanguinalis (DIGSA), Echinochloa crus-galli (ECHCG)

Compound	pest or weed control at 500 g/ha [%]
COC(=O)OC1=C(c2cc(-c3ccc(Cl)cc3)ccc2C)C(=O)C(C)(C)OC1 [Compound D-5]	0

Tested on: Avena fatua (AVEFA)
Assay: as above
Assay type: in vivo
Conditions: 480 h, rate 500 g/ha, evaluated 20 days after spraying, read-out: Pre-emergence activity AVEFA (100=total damage to plant; 0=no damage to plant)
Experimental: as §1, §2

Compound	pest or weed control at 500 g/ha [%]
COC(=O)OC1=C(c2cc(-c3ccc(Cl)cc3)ccc2C)C(=O)C(C)(C)OC1 [Compound D-5]	20

Tested on: Digitaria sanguinalis (DIGSA)
Assay: as above
Assay type: in vivo
Conditions: 480 h, rate 500 g/ha, evaluated 20 days after spraying, read-out: Pre-emergence activity DIGSA (100=total damage to plant; 0=no damage to plant)
Experimental: as §1, §2

Compound	pest or weed control at 500 g/ha [%]
COC(=O)OC1=C(c2cc(-c3ccc(Cl)cc3)ccc2C)C(=O)C(C)(C)OC1 [Compound D-5]	60

Tested on: Echinochloa crus-galli (ECHCG)
Assay: as above
Assay type: in vivo
Conditions: 480 h, rate 500 g/ha, evaluated 20 days after spraying, read-out: Pre-emergence activity ECHCG (100=total damage to plant; 0=no damage to plant)
Experimental: as §1, §2

Compound	pest or weed control at 500 g/ha [%]
COC(=O)OC1=C(c2cc(-c3ccc(Cl)cc3)ccc2C)C(=O)C(C)(C)OC1 [Compound D-5]	50

Tested on: Lolium perenne (LOLPE)
Assay: as above
Assay type: in vivo
Conditions: 480 h, rate 500 g/ha, evaluated 20 days after spraying, read-out: Pre-emergence activity LOLPE (100=total damage to plant; 0=no damage to plant)
Experimental: as §1, §2

Compound	pest or weed control at 500 g/ha [%]
COC(=O)OC1=C(c2cc(-c3ccc(Cl)cc3)ccc2C)C(=O)C(C)(C)OC1 [Compound D-5]	0

Tested on: Setaria faberi (SETFA)
Assay: as above
Assay type: in vivo
Conditions: 480 h, rate 500 g/ha, evaluated 20 days after spraying, read-out: Pre-emergence activity SETFA (100=total damage to plant; 0=no damage to plant)
Experimental: as §1, §2

Compound	pest or weed control at 500 g/ha [%]
COC(=O)OC1=C(c2cc(-c3ccc(Cl)cc3)ccc2C)C(=O)C(C)(C)OC1 [Compound D-5]	20

Tested on: Alopecurus myosuroides (ALOMY)
Assay: Example A post-emergence herbicidal activity, glasshouse pot test
Assay type: in vivo
Conditions: 360 h, rate 125 g/ha, evaluated 15 days after spraying, read-out: Post-emergence activity ALOMY (100=total damage to plant; 0=no damage to plant)
Experimental: as §1, §2

Compound	pest or weed control at 125 g/ha [%]
COC(=O)OC1=C(c2cc(-c3ccc(Cl)cc3)ccc2C)C(=O)C(C)(C)OC1 [Compound D-5]	10

Tested on: Avena fatua (AVEFA)
Assay: as above
Assay type: in vivo
Conditions: 360 h, rate 125 g/ha, evaluated 15 days after spraying, read-out: Post-emergence activity AVEFA (100=total damage to plant; 0=no damage to plant)
Experimental: as §1, §2

Compound	pest or weed control at 125 g/ha [%]
COC(=O)OC1=C(c2cc(-c3ccc(Cl)cc3)ccc2C)C(=O)C(C)(C)OC1 [Compound D-5]	40

Tested on: Digitaria sanguinalis (DIGSA)
Assay: as above
Assay type: in vivo
Conditions: 360 h, rate 125 g/ha, evaluated 15 days after spraying, read-out: Post-emergence activity DIGSA (100=total damage to plant; 0=no damage to plant)
Experimental: as §1, §2

Compound	pest or weed control at 125 g/ha [%]
COC(=O)OC1=C(c2cc(-c3ccc(Cl)cc3)ccc2C)C(=O)C(C)(C)OC1 [Compound D-5]	20

Tested on: Echinochloa crus-galli (ECHCG)
Assay: as above
Assay type: in vivo
Conditions: 360 h, rate 125 g/ha, evaluated 15 days after spraying, read-out: Post-emergence activity ECHCG (100=total damage to plant; 0=no damage to plant)
Experimental: as §1, §2

Compound	pest or weed control at 125 g/ha [%]
COC(=O)OC1=C(c2cc(-c3ccc(Cl)cc3)ccc2C)C(=O)C(C)(C)OC1 [Compound D-5]	60

Tested on: Lolium perenne (LOLPE)
Assay: as above
Assay type: in vivo
Conditions: 360 h, rate 125 g/ha, evaluated 15 days after spraying, read-out: Post-emergence activity LOLPE (100=total damage to plant; 0=no damage to plant)
Experimental: as §1, §2

Compound	pest or weed control at 125 g/ha [%]
COC(=O)OC1=C(c2cc(-c3ccc(Cl)cc3)ccc2C)C(=O)C(C)(C)OC1 [Compound D-5]	40

Tested on: Setaria faberi (SETFA)
Assay: as above
Assay type: in vivo
Conditions: 360 h, rate 125 g/ha, evaluated 15 days after spraying, read-out: Post-emergence activity SETFA (100=total damage to plant; 0=no damage to plant)
Experimental: as §1, §2

Compound	pest or weed control at 125 g/ha [%]
COC(=O)OC1=C(c2cc(-c3ccc(Cl)cc3)ccc2C)C(=O)C(C)(C)OC1 [Compound D-5]	70

Tested on: Alopecurus myosuroides (ALOMY)
Assay: Example B pre-emergence herbicidal activity, glasshouse pot test
Assay type: in vivo
Conditions: 312 h, rate 250 g/ha, evaluated after 13 days, read-out: Pre-emergence activity ALOMY (100=total damage to plant; 0=no damage to plant)
How it was run: (§3)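 Visual injury score (0 none to 100 total plant damage) recorded 13 days after spraying. Plants received an aqueous spray of compound in 50:50 acetone/water with 0.5% Tween 20, either one day after sowing or after eight days of cultivation, in pots kept under controlled glasshouse conditions.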

Compound	pest or weed control at 250 g/ha [%]
CCc1ccc(-c2ccc(Cl)cc2)cc1C1=C(O)C(C)(C)OC(C)(COC)C1=O (stereo not drawn) [Compound A-99]	80

Tested on: Amaranthus retroflexus (AMARE)
Assay: as above
Assay type: in vivo
Conditions: 312 h, rate 250 g/ha, evaluated after 13 days, read-out: Pre-emergence activity AMARE (100=total damage to plant; 0=no damage to plant)
How it was run: as §3

Compound	pest or weed control at 250 g/ha [%]
CCc1ccc(-c2ccc(Cl)cc2)cc1C1=C(O)C(C)(C)OC(C)(COC)C1=O (stereo not drawn) [Compound A-99]	20

Tested on: Avena fatua (AVEFA)
Assay: as above
Assay type: in vivo
Conditions: 312 h, rate 250 g/ha, evaluated after 13 days, read-out: Pre-emergence activity AVEFA (100=total damage to plant; 0=no damage to plant)
How it was run: as §3

Compound	pest or weed control at 250 g/ha [%]
CCc1ccc(-c2ccc(Cl)cc2)cc1C1=C(O)C(C)(C)OC(C)(COC)C1=O (stereo not drawn) [Compound A-99]	50

Tested on: Echinochloa crus-galli (ECHCG)
Assay: as above
Assay type: in vivo
Conditions: 312 h, rate 250 g/ha, evaluated after 13 days, read-out: Pre-emergence activity ECHCG (100=total damage to plant; 0=no damage to plant)
How it was run: as §3

Compound	pest or weed control at 250 g/ha [%]
CCc1ccc(-c2ccc(Cl)cc2)cc1C1=C(O)C(C)(C)OC(C)(COC)C1=O (stereo not drawn) [Compound A-99]	100

Tested on: Setaria faberi (SETFA)
Assay: as above
Assay type: in vivo
Conditions: 312 h, rate 250 g/ha, evaluated after 13 days, read-out: Pre-emergence activity SETFA (100=total damage to plant; 0=no damage to plant)
How it was run: as §3

Compound	pest or weed control at 250 g/ha [%]
CCc1ccc(-c2ccc(Cl)cc2)cc1C1=C(O)C(C)(C)OC(C)(COC)C1=O (stereo not drawn) [Compound A-99]	100

Tested on: Alopecurus myosuroides (ALOMY)
Assay: Example B post-emergence herbicidal activity, glasshouse pot test
Assay type: in vivo
Conditions: 312 h, rate 250 g/ha, evaluated after 13 days, read-out: Post-emergence activity ALOMY (100=total damage to plant; 0=no damage to plant)
How it was run: as §3

Compound	pest or weed control at 250 g/ha [%]
CCc1ccc(-c2ccc(Cl)cc2)cc1C1=C(O)C(C)(C)OC(C)(COC)C1=O (stereo not drawn) [Compound A-99]	90

Tested on: Amaranthus retroflexus (AMARE)
Assay: as above
Assay type: in vivo
Conditions: 312 h, rate 250 g/ha, evaluated after 13 days, read-out: Post-emergence activity AMARE (100=total damage to plant; 0=no damage to plant)
How it was run: as §3

Compound	pest or weed control at 250 g/ha [%]
CCc1ccc(-c2ccc(Cl)cc2)cc1C1=C(O)C(C)(C)OC(C)(COC)C1=O (stereo not drawn) [Compound A-99]	0

Tested on: Avena fatua (AVEFA)
Assay: as above
Assay type: in vivo
Conditions: 312 h, rate 250 g/ha, evaluated after 13 days, read-out: Post-emergence activity AVEFA (100=total damage to plant; 0=no damage to plant)
How it was run: as §3

Compound	pest or weed control at 250 g/ha [%]
CCc1ccc(-c2ccc(Cl)cc2)cc1C1=C(O)C(C)(C)OC(C)(COC)C1=O (stereo not drawn) [Compound A-99]	90

Tested on: Echinochloa crus-galli (ECHCG)
Assay: as above
Assay type: in vivo
Conditions: 312 h, rate 250 g/ha, evaluated after 13 days, read-out: Post-emergence activity ECHCG (100=total damage to plant; 0=no damage to plant)
How it was run: as §3

Compound	pest or weed control at 250 g/ha [%]
CCc1ccc(-c2ccc(Cl)cc2)cc1C1=C(O)C(C)(C)OC(C)(COC)C1=O (stereo not drawn) [Compound A-99]	100

Tested on: Setaria faberi (SETFA)
Assay: as above
Assay type: in vivo
Conditions: 312 h, rate 250 g/ha, evaluated after 13 days, read-out: Post-emergence activity SETFA (100=total damage to plant; 0=no damage to plant)
How it was run: as §3

Compound	pest or weed control at 250 g/ha [%]
CCc1ccc(-c2ccc(Cl)cc2)cc1C1=C(O)C(C)(C)OC(C)(COC)C1=O (stereo not drawn) [Compound A-99]	100

Tested on: not given
Assay: not given
Conditions: not given

melting point [°C]	Compound
123 to 124	CCc1ccc(-c2ccc(Cl)cc2)cc1C1=C(O)C(C)(C)OC(C)(COC)C1=O (stereo not drawn) [Compound A-99]
79.5	CCc1ccc(-c2ccc(Cl)cc2)cc1C1=C(O)C2CCCC(C1=O)C2=O (stereo not drawn) [Compound B-53]
